{"source": "PubChem BioAssay AID2060893", "about": "(Molecular Pharmacology Branch, DTP, NCI, 2025);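 note: spheroids exposed to agents for seven days before readout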", "system": "K86415-001-R-J1-PDC complex spheroids, viability", "assay": "Anticancer human tumor K86415-001-R-J1-PDC patient-derived lung adenocarcinoma cell line growth inhibition [RAS]", "conditions": "for IC50: curve of first compound; for viability, T/C: stronger effect = lower value", "method_in_brief": "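Agents were tested in combination matrices in half-log decrements from a top concentration at or near clinical Cmax (10 microM if undetermined). Targets were multi-cell spheroids of tumour lines plus HUVEC and MSC stromal cells.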"}
{"smiles": "Nc1ccn(C2OC(CO)C(O)C2(F)F)c(=O)n1", "note": "(configuration not stated) + C=CC(=O)N1CCN(c2nc(OCC3CCCN3C)nc3c(F)c(-c4nc(N)cc(C)c4C(F)(F)F)c(Cl)cc23)C(C)C1", "values": [{"measurement": "IC50", "setting": "second compound 0.00316 µM", "value": "< 3.16", "unit": "nM"}, {"measurement": "IC50", "setting": "second compound 0.01 µM", "value": "< 3.16", "unit": "nM"}, {"measurement": "IC50", "setting": "second compound 0.0316 µM", "value": "< 3.16", "unit": "nM"}, {"measurement": "IC50", "setting": "second compound 0.1 µM", "value": "< 3.16", "unit": "nM"}, {"measurement": "IC50", "setting": "second compound 0.316 µM", "value": "< 3.16", "unit": "nM"}, {"measurement": "IC50", "setting": "second compound 1 µM", "value": "< 3.16", "unit": "nM"}, {"measurement": "viability, T/C", "setting": "second compound 0.00316 µM, first compound 0.00316 µM", "value": 18.1, "unit": "%"}, {"measurement": "viability, T/C", "setting": "second compound 0.00316 µM, first compound 0.01 µM", "value": 16.6, "unit": "%"}, {"measurement": "viability, T/C", "setting": "second compound 0.00316 µM, first compound 0.0316 µM", "value": 14.9, "unit": "%"}, {"measurement": "viability, T/C", "setting": "second compound 0.00316 µM, first compound 0.1 µM", "value": 14.7, "unit": "%"}, {"measurement": "viability, T/C", "setting": "second compound 0.00316 µM, first compound 0.316 µM", "value": 17.8, "unit": "%"}, {"measurement": "viability, T/C", "setting": "second compound 0.00316 µM, first compound 1 µM", "value": 17.2, "unit": "%"}, {"measurement": "viability, T/C", "setting": "second compound 0.01 µM, first compound 0.00316 µM", "value": 16.1, "unit": "%"}, {"measurement": "viability, T/C", "setting": "second compound 0.01 µM, first compound 0.01 µM", "value": 12.8, "unit": "%"}, {"measurement": "viability, T/C", "setting": "second compound 0.01 µM, first compound 0.0316 µM", "value": 9.45, "unit": "%"}, {"measurement": "viability, T/C", "setting": "second compound 0.01 µM, first compound 0.1 µM", "value": 11.5, "unit": "%"}, {"measurement": "viability, T/C", "setting": "second compound 0.01 µM, first compound 0.316 µM", "value": 9.75, "unit": "%"}, {"measurement": "viability, T/C", "setting": "second compound 0.01 µM, first compound 1 µM", "value": 11.1, "unit": "%"}, {"measurement": "viability, T/C", "setting": "second compound 0.0316 µM, first compound 0.00316 µM", "value": 11, "unit": "%"}, {"measurement": "viability, T/C", "setting": "second compound 0.0316 µM, first compound 0.01 µM", "value": 12.7, "unit": "%"}, {"measurement": "viability, T/C", "setting": "second compound 0.0316 µM, first compound 0.0316 µM", "value": 10.5, "unit": "%"}, {"measurement": "viability, T/C", "setting": "second compound 0.0316 µM, first compound 0.1 µM", "value": 9.28, "unit": "%"}, {"measurement": "viability, T/C", "setting": "second compound 0.0316 µM, first compound 0.316 µM", "value": 11, "unit": "%"}, {"measurement": "viability, T/C", "setting": "second compound 0.0316 µM, first compound 1 µM", "value": 10.4, "unit": "%"}, {"measurement": "viability, T/C", "setting": "second compound 0.1 µM, first compound 0.00316 µM", "value": 9.91, "unit": "%"}, {"measurement": "viability, T/C", "setting": "second compound 0.1 µM, first compound 0.01 µM", "value": 9.83, "unit": "%"}, {"measurement": "viability, T/C", "setting": "second compound 0.1 µM, first compound 0.0316 µM", "value": 9.05, "unit": "%"}, {"measurement": "viability, T/C", "setting": "second compound 0.1 µM, first compound 0.1 µM", "value": 9.1, "unit": "%"}, {"measurement": "viability, T/C", "setting": "second compound 0.1 µM, first compound 0.316 µM", "value": 11.7, "unit": "%"}, {"measurement": "viability, T/C", "setting": "second compound 0.1 µM, first compound 1 µM", "value": 11.4, "unit": "%"}, {"measurement": "viability, T/C", "setting": "second compound 0.316 µM, first compound 0.00316 µM", "value": 11, "unit": "%"}, {"measurement": "viability, T/C", "setting": "second compound 0.316 µM, first compound 0.01 µM", "value": 10.5, "unit": "%"}, {"measurement": "viability, T/C", "setting": "second compound 0.316 µM, first compound 0.0316 µM", "value": 11, "unit": "%"}, {"measurement": "viability, T/C", "setting": "second compound 0.316 µM, first compound 0.1 µM", "value": 8.77, "unit": "%"}, {"measurement": "viability, T/C", "setting": "second compound 0.316 µM, first compound 0.316 µM", "value": 11.1, "unit": "%"}, {"measurement": "viability, T/C", "setting": "second compound 0.316 µM, first compound 1 µM", "value": 8.63, "unit": "%"}, {"measurement": "viability, T/C", "setting": "second compound 1 µM, first compound 0.00316 µM", "value": 10.2, "unit": "%"}, {"measurement": "viability, T/C", "setting": "second compound 1 µM, first compound 0.01 µM", "value": 11.9, "unit": "%"}, {"measurement": "viability, T/C", "setting": "second compound 1 µM, first compound 0.0316 µM", "value": 10.3, "unit": "%"}, {"measurement": "viability, T/C", "setting": "second compound 1 µM, first compound 0.1 µM", "value": 11.7, "unit": "%"}, {"measurement": "viability, T/C", "setting": "second compound 1 µM, first compound 0.316 µM", "value": 11.7, "unit": "%"}, {"measurement": "viability, T/C", "setting": "second compound 1 µM, first compound 1 µM", "value": 8.61, "unit": "%"}]}
